Assay [1] concerns the target dopamine D-2 receptor (Rattus norvegicus, UniProt P61169). Description: biochemical. The settings on record: rat caudate, [125I]-p-aminophenylethyl spiroperidol; read-out: D-2 Ki. The class given is binding. The procedure: Homogenized rat caudate was the source of the D-2 receptors. […] The molar affinity of the compound for the receptor binding site was calculated by the same method used for the D-1 receptor assay, assuming a competitive interaction between the compound and the radiolabeled ligand.

Assay [2] deals with dopamine D-1 receptor. The settings on record: for Intrinsic Activity (adenylate cyclase assay): dopamine = 100, goldfish retina or rat striatum; for pEC50: read-out: EC50 (agonist activity in adenylate cyclase assay), tissue from goldfish retina or rat striatum.
Method: In order to determine agonist activity, cell-free tissue homogenates are incubated in an ionic buffer solution containing ATP and the compound being evaluated. The tissue was obtained from either goldfish retina or rat striatum.
Assay [3] addresses dopamine D-1 receptor (Rattus norvegicus, UniProt P18901). Description: biochemical. The note with it: D-1 Ki, rat caudate, [125I]SCH-23982.
From the text: The compounds compete with the radiolabeled ligand for occupancy of the receptors and the molar potency of each compound was quantified.
The Ki values are inversely proportional to the affinity of the compound for the receptor.

pEC50, pKi: −log10 of the molar value. Structures can show the parent of a compound that is named as a salt.

dopamine D-2 receptor, sequence (P61169 whole entry): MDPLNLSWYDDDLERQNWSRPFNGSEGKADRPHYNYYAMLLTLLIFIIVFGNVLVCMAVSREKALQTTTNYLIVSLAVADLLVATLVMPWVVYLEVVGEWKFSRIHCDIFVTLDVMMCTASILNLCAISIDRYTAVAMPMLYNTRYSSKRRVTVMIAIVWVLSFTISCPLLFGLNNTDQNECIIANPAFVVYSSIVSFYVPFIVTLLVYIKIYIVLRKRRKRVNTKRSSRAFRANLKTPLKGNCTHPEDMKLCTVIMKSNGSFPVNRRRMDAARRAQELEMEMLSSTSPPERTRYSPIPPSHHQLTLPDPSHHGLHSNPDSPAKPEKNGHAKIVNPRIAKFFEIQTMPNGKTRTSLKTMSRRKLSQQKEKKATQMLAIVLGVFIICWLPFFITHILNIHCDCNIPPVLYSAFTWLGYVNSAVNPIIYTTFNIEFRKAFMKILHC
dopamine D-1 receptor (Rattus norvegicus, UniProt P18901), sequence (P18901 whole entry): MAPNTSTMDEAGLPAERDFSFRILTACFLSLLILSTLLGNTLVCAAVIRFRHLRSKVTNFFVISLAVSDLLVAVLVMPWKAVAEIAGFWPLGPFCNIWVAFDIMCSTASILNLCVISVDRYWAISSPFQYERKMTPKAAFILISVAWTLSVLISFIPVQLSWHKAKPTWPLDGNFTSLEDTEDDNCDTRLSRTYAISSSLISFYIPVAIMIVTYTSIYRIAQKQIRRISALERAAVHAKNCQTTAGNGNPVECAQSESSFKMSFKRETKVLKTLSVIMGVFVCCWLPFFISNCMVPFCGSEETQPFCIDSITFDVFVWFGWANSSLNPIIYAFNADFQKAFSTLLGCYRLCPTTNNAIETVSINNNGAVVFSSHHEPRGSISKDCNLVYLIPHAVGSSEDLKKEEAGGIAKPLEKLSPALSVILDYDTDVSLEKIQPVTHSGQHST

Regarding `Oc1ccc2c(c1O)C[C@H](C1CCCCC1)O[C@@H]2CNC1CC1` (relative stereo) [Example 114], the pKi in assay [1] is 6.05. Also, in assay [2], the “Intrinsic Activity (adenylate cyclase assay)” value (shortened to “Intrinsic Activity”) stood at 60 and the pEC50 was 7.22. In assay [3], this molecule showed a pKi of 6.38.
The like results for `CNCC1OC2(CCCCCCCC2)Cc2c1ccc(O)c2O` (stereo not drawn) [Example 224] were, in that order, 5.64, 64, 6.62 and 6.64.
The like results for `NC[C@@H]1O[C@H](CCc2ccccc2)Cc2c1ccc(O)c2O` (relative stereo) [Example 61] were, in that order, 5.89, 76, 8.22 and 6.54.
Regarding `CCCCCC[C@@H]1Cc2c(ccc(O)c2O)[C@H](CN)O1` (relative stereo) [Example 68], the pKi in assay [1] was 5.26. Moreover, in assay [2], the “Intrinsic Activity” value was found to be 90 and the pEC50 is 7.85. Also, in assay [3], the pKi was 7.00.
As for `C=CCNC[C@@H]1O[C@H](C(C)(C)C)Cc2c1ccc(O)c2O` [Example 129], the pKi in assay [1] is 5.51. In addition, in assay [2], the “Intrinsic Activity” value came out at 97 and the pEC50 was 6.00. The pKi in assay [3] was 5.68.
On to `NCC1CC2(CCCCC2)Cc2c1ccc(O)c2O` (stereo not drawn) [Example 194], for which the pKi in assay [1] was less than 5.00. In assay [2], the “Intrinsic Activity” value worked out at 82 and the pEC50 is 7.24. The same molecule gave a pKi in assay [3] of 5.40.
As for `CCCC[C@@H]1Cc2c(ccc(O)c2O)[C@H](CN)O1` (relative stereo) [Example 79], the pKi in assay [1] was 6.04. In addition, in assay [2], the “Intrinsic Activity” value is reported as 151 and the pEC50 is 8.15. In assay [3], this molecule showed a negative-log Ki (pKi) of 6.14.
`NC[C@@H]1O[C@H](c2ccc(I)cc2)Cc2c1ccc(O)c2O` (relative stereo) [Example 80]: the pKi in assay [1] is 5.96. Besides, in assay [2], the “Intrinsic Activity” value is 161 and the negative-log EC50 (pEC50) was 8.10. Besides, the negative logarithm of the Ki (pKi) in assay [3] was 7.85.
For `NC[C@H]1Cc2c(ccc(O)c2O)[C@@H](CN)O1` (relative stereo) [Example 154, [1,3-cis]1,3-Bis(aminomethyl)-3,4-dihydro-5,6-dihydroxy-1H-2-benzopyran Dihydrochloride], the negative logarithm of the Ki (pKi) is 4.77 in assay [1] and 5.85 in assay [3]. Besides, the “Intrinsic Activity” value in assay [2] was determined as 95. Further, the pEC50 in assay [2] was 7.00.
In the case of `NCC1CC2(CCCC2)Cc2c1ccc(O)c2O` (stereo not drawn) [Example 196], in assay [1], the pKi is less than 5.00. In assay [2], the “Intrinsic Activity” value is 80 and the pEC50 was 5.96. In assay [3], this molecule gave a pKi of 5.22.
As for `CNC[C@H]1O[C@@H](c2ccc(F)cc2)Cc2c1ccc(O)c2O` (relative stereo) [Example 136], the pKi in assay [1] was 5.60. Besides, in assay [2], the “Intrinsic Activity” value was 133 and the negative logarithm of the EC50 (pEC50) is 8.30. The negative logarithm of the Ki (pKi) in assay [3] was 7.00.
As for `NCC1=CC2(CCCCCCC2)Cc2c1ccc(O)c2O` [Example 191], the pKi in assay [1] was less than 5.00. Also, in assay [2], the “Intrinsic Activity” value was 58 and the pEC50 was 5.82. This molecule also had a pKi in assay [3] of 5.96.
As to `CNC[C@H]1C[C@@H](c2ccccc2)Cc2c1ccc(O)c2O` (relative stereo) [Example 150, [1,3-cis]5,6,Dihydroxy-1-(N-methyl)aminomethyl-3-phenyl-1,2,3,4-tetrahydro-naphthalene], the pKi in assay [1] was 4.92. Moreover, in assay [2], the “Intrinsic Activity” value is reported as 102 and the pEC50 is 8.22. Moreover, the pKi in assay [3] was 7.60.
In the case of `CNC[C@H]1O[C@@H](CC2CCCCC2)Cc2c1ccc(O)c2O` (relative stereo) [Example 140], the pKi in assay [1] is 5.82. In assay [2], the “Intrinsic Activity” value is 113 and the pEC50 was 8.08. In assay [3], this molecule showed a pKi of 7.22.
In the case of `C=CCC[C@H]1Cc2c(ccc(O)c2O)[C@@H](CNC)O1` (relative stereo) [Example 132], in assay [1], the pKi was 6.19. Also, in assay [2], the “Intrinsic Activity” value is 106 and the pEC50 was 6.06. In assay [3], the pKi was 7.07.
The like results for `Oc1ccc2c(c1O)C[C@@H](c1ccccc1)O[C@H]2[C@H]1CCCN1` [Example 123] were, in that order, less than 5.00, 61, 6.11 and 5.09.
`CNCC1OC2(CCCCCCC2)Cc2c1ccc(O)c2O` (stereo not drawn) [Example 142]: the pKi in assay [1] was less than 5.00. Moreover, in assay [2], the “Intrinsic Activity” value was 71 and the negative logarithm of the EC50 (pEC50) was 7.06. This molecule had a negative-log Ki (pKi) in assay [3] of 6.72.
Take `NC[C@H]1O[C@@H](c2cccc(C(F)(F)F)c2)Cc2c1ccc(O)c2O` (relative stereo) [Example 99]: in assay [1], the pKi is 5.05. Further, in assay [2], the “Intrinsic Activity” value is 134 and the pEC50 is 8.30. The molecule also showed a negative-log Ki (pKi) in assay [3] of 7.66.
As for `CCCC[C@H]1Cc2c(ccc(O)c2O)[C@@H](CNC)O1` (relative stereo) [Example 135], the pKi in assay [1] was 5.80. Further, in assay [2], the “Intrinsic Activity” value amounted to 136 and the negative-log EC50 (pEC50) was 8.15. In assay [3], the pKi was 6.74.
Take `CNCC1OC2(CCCCCC2)Cc2c1ccc(O)c2O` (stereo not drawn) [Example 141]: the pKi in assay [1] is 5.59. For the same molecule, in assay [2], the “Intrinsic Activity” value was 97 and the pEC50 was 7.10. In addition, in assay [3], the pKi was 6.92.
The like results for `NCC1=CC2(CCCCCCCCC2)Cc2c1ccc(O)c2O` [Example 234] were, in that order, less than 5.00, 53, 5.57 and 5.41.
As to `CC(=O)NCC[C@H]1Cc2c(ccc(O)c2O)[C@@H](CN)O1` (relative stereo) [Example 172], the pKi in assay [1] was less than 5.00; in assay [3], 5.96. Also, the “Intrinsic Activity” value in assay [2] amounted to 116. Also, in assay [2], the pEC50 is 6.66.
For the molecule `NC[C@H]1O[C@@H](c2ccc(C(F)(F)F)cc2)Cc2c1ccc(O)c2O` (relative stereo) [Example 98], the pKi in assay [1] is 5.72. In assay [2], the “Intrinsic Activity” value was found to be 108 and the negative logarithm of the EC50 (pEC50) is 7.74. The same molecule had a pKi in assay [3] of 6.66.
For the molecule `NC[C@@H]1O[C@H](CC2CCCC2)Cc2c1ccc(O)c2O` (relative stereo) [Example 78], in assay [1], the pKi is 6.09. For the same molecule, in assay [2], the “Intrinsic Activity” value is 147 and the pEC50 was 7.82. The molecule further showed a pKi in assay [3] of 7.31.
Regarding `NCC1CC2(CCCCCCC2)Cc2c1ccc(O)c2O` (stereo not drawn) [Example 197], in assay [1], the pKi was less than 5.30. For the same molecule, in assay [2], the “Intrinsic Activity” value turned out to be 56 and the pEC50 was 6.74. In assay [3], the pKi is 6.06.
Take `NCC1OC2(CCCCCCC2)Cc2c1ccc(O)c2O` (stereo not drawn) [Example 94]: the negative-log Ki (pKi) in assay [1] was less than 5.00. For the same molecule, in assay [2], the “Intrinsic Activity” value was found to be 110 and the pEC50 is 7.15. This molecule also showed a pKi in assay [3] of 7.08.
The corresponding values for `NC[C@H]1O[C@@H](CNC(=O)c2cccnc2)Cc2c1ccc(O)c2O` (relative stereo) [Example 170] are 6.85, 151, 6.89 and 6.24.

Broadly, the pKi is the Ki on a negative log10 scale, so that one unit is a factor of ten. What is called pEC50 is −log10 of the EC50, conventionally taken in molar units.
